Article PMC12818720, “Nanoengineered Self-Assembling Peptides with Increased Proteolytic Stability Promote Wound Healing” (ACS Applied Materials & Interfaces, 2025)
Ends that are not written are not given here.

Experiments:
[1] = test system: HaCaT cells; assay: Cytotoxicity / metabolic activity, AlamarBlue direct contact assay; assay type: cell-based, human; settings: assembly performed in the presence of Cu2+ (1:1), 24 h, serum-free DMEM-HG
Description: As the designed systems target wound healing, we assessed their cytocompatibility toward human keratinocyte cell line HaCaT.
The cytotoxicity evaluation of the peptides and their supramolecular assemblies was evaluated by direct contact assay with HaCaT cells using the AlamarBlue HS Cell Viability Reagent assay (Biorad). Briefly, HaCaT cells were cultured in DMEM-HG supplemented with 10% FBS (2.5 × 10^4 cell/well) in 96-well plates for 24 h. Peptide solutions (10 mM) were prepared 24 h before the assay and sterilized (UV, 30 min). These solutions were diluted in serum-free DMEM-HG just prior to the assay to obtain concentrations ranging from 1 to 0.05 mM and added to the cultured HaCaT cells. Cultures with the peptides were mantained for 24 h and then the medium was aspirated, and AlamarBlue HS Cell Viability solution (10% (v/v) in DMEM-HG) was added to each well. The plates were incubated for 3 h at 37 °C with 5% CO2. The medium from each well was transferred to a black 96-well plate, and the fluorescence was measured using a microplate reader (Synergy, Bio-Tek) with an excitation wavelength of 550 nm and an emission wavelength of 590 nm. Cells cultured on tissue culture polystyrene (TCPS) were used as a positive control and cells treated with 20% DMSO were used as a negative one.

[2] = target: T1, proteinase K (Parengyodontium album, UniProt P06873); assay: Stability of peptide assemblies against proteinase K (HPLC); assay type: in vitro ADME; settings: in the presence of Cu2+, peptide 2 mM
T1 construct: purchased AppliChem
T1 sequence (P06873 106-384): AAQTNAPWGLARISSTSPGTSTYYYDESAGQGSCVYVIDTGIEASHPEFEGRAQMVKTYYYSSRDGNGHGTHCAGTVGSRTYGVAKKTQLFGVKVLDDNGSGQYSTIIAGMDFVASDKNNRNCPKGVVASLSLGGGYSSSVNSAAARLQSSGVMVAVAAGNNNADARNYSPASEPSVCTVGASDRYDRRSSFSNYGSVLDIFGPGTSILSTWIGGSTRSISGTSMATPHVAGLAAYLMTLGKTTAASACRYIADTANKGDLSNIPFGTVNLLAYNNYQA
Description: The chemical structure and molecular packing of the peptides play a crucial role in their stability by (un)-shielding the amide bonds from enzymatic degradation. − We investigated the stability of the supramolecular assemblies generated by Pep1–Pep3 in the presence of proteinase K. This enzyme was selected because of its activity toward a broad range of peptides/proteins that spans different temperatures (25–65 °C) and pH values (7–12).
A stock solution of proteinase K (50 μg/mL, AppliChem) was prepared in PBS. Peptide assemblies were prepared as described in Section 1 day prior the assay. These samples were incubated with proteinase K (final concentration: 10 μg/mL for proteinase K and 2 mM for Cu-free or Cu-complexed Pep1-Pep3). At each designated time point, an aliquot of 150 μL was collected, and the enzymatic activity was stopped by adding 300 μL of 1:1 H2O/ACN with 0.1% TFA. The aliquot was quantitatively assessed using HPLC under the conditions described in Section . Each sample was run in duplicate to ensure reliable results.

Row | Sequence | concentration above which cytotoxicity was observed [1] | peptide not degraded after 6 h of incubation with proteinase K ([2]; proteinase K 10 μg/mL in PBS, 6 h, HPLC read-out, run in duplicate) | initial concentration still present after 24 h with proteinase K ([2]; proteinase K 10 μg/mL in PBS, 24 h, HPLC read-out, run in duplicate) [%] | relative stability to proteinase K (in words) ([2]; proteinase K 10 μg/mL, HPLC)
1 | FFFFDGHK [Pep2] | above 250 μM |  |  | 
2 | FFFFDKHG [Pep3] | above 250 μM | more than 90% | 60 | most stable
